“Also recorded” adds a separate entry of the source.
Legend:
[1] = test system: sperm of a semen sample from a patient with asthenozoospermia; assay: In vitro assay of the effect of phosphodiesterase inhibitors on sperm motility; assay type: cell-based, human; parameters: key to Increase in sperm speed: the symbol ++ denotes a very significant increase in sperm motility; details: vs untreated sample; for Increase in sperm type A + B: mixed 1:1 with semen; for Increase in sperm speed: subjective rating, all sperm types
Description: In each case the corresponding phosphodiesterase inhibitor (rolipram, milrinone, ibudilast and pentoxifylline) was dissolved in a commercial medium suitable for performing sperm preparations (SpermRinse®) to the desired concentration. […] A semen sample was taken from a patient with asthenozoospermia and it was kept at room temperature for 5 minutes after liquefaction, it was mixed with SpermRinse® solution without phosphodiesterase inhibitor in a volumetric ratio of 1:1. Another part of the semen was mixed also after liquefaction with the SpermRinse® solution containing the phosphodiesterase inhibitor also in a proportion of 1:1 by volume. For each observation, 3 microdrops of the preparation were used, they were placed under an optical microscope with 20× objective and Makler camera. A sperm count was performed, the number of type A sperm (advancing rapidly, with rectilinear trajectory) and type B sperm (advancing rapidly, with curvilinear trajectory) of each sample being counted. This was performed for the untreated sample and for the samples treated with the phosphodiesterase inhibitor. Three readings were made for each sample and the mean value was calculated. Likewise, a subjective observation of the increase of sperm speed of all the sperm types was also performed for the samples treated with the phosphodiesterase inhibitor, with respect to the untreated samples.

couples with infertility = assay: Assay of the effectiveness of intravaginal pentoxifylline in the treatment of couples with infertility; assay type: in vivo, human
Description: The most fertile days were determined by cervical mucus test, vaginal ultrasound, or ovulation test. An ovulation inducer, clomiphene or purified human gonadotrofin, irrespectively, was simultaneously administered to 6 of the couples. The gel was administered in 3 different cycles or in several days of the same cycle. A meeting was conducted with the patients between 15 and 20 hours after each administration and a microscopic examination of the endocervical exudate was performed.

[2] = test system: infertile men with asthenozoospermia; details: 1200 mg daily for four months, cited from earlier work
[3] = microscopic examination 15 to 20 hours after transvaginal administration

SMILES: CC(C)C(=O)c1c(C(C)C)nn2ccccc12 [Ibudilast, 2-methyl-1-(2-(1-methyethyl)pyrazolo(1,5-a)pyridin-3-yl)-1-propanone]
- Increase in sperm type A + B ([1]; 100 μM in SpermRinse): ++ (the symbol ++ indicates an increase greater than 40% in the A+B sperm type count)
- Increase in sperm speed ([1]; 100 μM): ++

SMILES: Cc1[nH]c(=O)c(C#N)cc1-c1ccncc1 [Milrinone, 1,6-dihydro-2-methyl-6-oxo-(3,4′-bipyridine)-5-carbonitrile]
- Increase in sperm type A + B ([1]; 1 μM in SpermRinse): ++ (the symbol ++ indicates an increase greater than 40% in the A+B sperm type count)
- Increase in sperm speed ([1]; 1 μM): ++

SMILES: CC(=O)CCCCn1c(=O)c2c(ncn2C)n(C)c1=O [Pentoxifylline, 3,7-dihydro-3,7-dimethyl-1-(5-oxohexyl)-1H-purine-2,6-dione]
- Increase in sperm type A + B ([1]; 1 μM in SpermRinse): ++ (the symbol ++ indicates an increase greater than 40% in the A+B sperm type count)
- Increase in sperm speed ([1]; 1 μM): ++
- pregnancies achieved (couples with infertility; among 20 couples, transvaginal gel of Example 2): 4
- cervical mucus characteristics (filancia, transparency, leukocytic diathesis) (couples with infertility; [3]): maintains and even improves the characteristics of cervical mucus; also recorded: improvement in the characteristics of cervical mucus
- type A sperm (WHO classification) counted in cervical exudate (couples with infertility; [3]): significant number of type A sperm
- sperm quality in terms of motility in cervical exudate (couples with infertility; microscopic examination 15 to 20 hours after transvaginal administration, asthenozoospermia and normospermia): improvement in sperm quality in terms of motility
- side effects due to the treatment (couples with infertility; transvaginal administration in women): not observed in any case; also recorded: does not cause any type of allergy or side effect
- pregnancy percentage (effectiveness) (couples with infertility; transvaginal, three single-doses of 10 g gel of Example 2 (4% pentoxifylline), after coitus, 20 couples): 20%
- pregnancies counted after oral treatment ([2]; 15 infertile men): 2
- pregnancy percentage after oral treatment ([2]; 15 infertile men): 13.3%
- sperm motility of the subjects treated ([2]; oral): substantial improvement in sperm motility

— patent US9801885B2, “Transvaginal phosphodiesterase inhibitors for infertility treatment” (PROKREA BCN, S.L., priority 2011, dated 2017)
